A word on the pIC50: it is the IC50 on a negative log10 scale, so that one unit is a factor of ten.

This passage reports IC50 results from patent publication US8247442B2, “Benzenesulfonamide compounds and their use” (Purdue Pharma L.P., priority 2006, dated 2012).

pIC50: −log10 of the molar value.

This experiment deals with T1, N-type calcium channel (NTCC) (Homo sapiens, UniProt Q00975).
T1 construct: endogenous in cells; host or cells: IMR32 cells (ATCC), differentiated with dibutyryl cAMP and bromodeoxyuridine
T1 sequence (Q00975 whole entry): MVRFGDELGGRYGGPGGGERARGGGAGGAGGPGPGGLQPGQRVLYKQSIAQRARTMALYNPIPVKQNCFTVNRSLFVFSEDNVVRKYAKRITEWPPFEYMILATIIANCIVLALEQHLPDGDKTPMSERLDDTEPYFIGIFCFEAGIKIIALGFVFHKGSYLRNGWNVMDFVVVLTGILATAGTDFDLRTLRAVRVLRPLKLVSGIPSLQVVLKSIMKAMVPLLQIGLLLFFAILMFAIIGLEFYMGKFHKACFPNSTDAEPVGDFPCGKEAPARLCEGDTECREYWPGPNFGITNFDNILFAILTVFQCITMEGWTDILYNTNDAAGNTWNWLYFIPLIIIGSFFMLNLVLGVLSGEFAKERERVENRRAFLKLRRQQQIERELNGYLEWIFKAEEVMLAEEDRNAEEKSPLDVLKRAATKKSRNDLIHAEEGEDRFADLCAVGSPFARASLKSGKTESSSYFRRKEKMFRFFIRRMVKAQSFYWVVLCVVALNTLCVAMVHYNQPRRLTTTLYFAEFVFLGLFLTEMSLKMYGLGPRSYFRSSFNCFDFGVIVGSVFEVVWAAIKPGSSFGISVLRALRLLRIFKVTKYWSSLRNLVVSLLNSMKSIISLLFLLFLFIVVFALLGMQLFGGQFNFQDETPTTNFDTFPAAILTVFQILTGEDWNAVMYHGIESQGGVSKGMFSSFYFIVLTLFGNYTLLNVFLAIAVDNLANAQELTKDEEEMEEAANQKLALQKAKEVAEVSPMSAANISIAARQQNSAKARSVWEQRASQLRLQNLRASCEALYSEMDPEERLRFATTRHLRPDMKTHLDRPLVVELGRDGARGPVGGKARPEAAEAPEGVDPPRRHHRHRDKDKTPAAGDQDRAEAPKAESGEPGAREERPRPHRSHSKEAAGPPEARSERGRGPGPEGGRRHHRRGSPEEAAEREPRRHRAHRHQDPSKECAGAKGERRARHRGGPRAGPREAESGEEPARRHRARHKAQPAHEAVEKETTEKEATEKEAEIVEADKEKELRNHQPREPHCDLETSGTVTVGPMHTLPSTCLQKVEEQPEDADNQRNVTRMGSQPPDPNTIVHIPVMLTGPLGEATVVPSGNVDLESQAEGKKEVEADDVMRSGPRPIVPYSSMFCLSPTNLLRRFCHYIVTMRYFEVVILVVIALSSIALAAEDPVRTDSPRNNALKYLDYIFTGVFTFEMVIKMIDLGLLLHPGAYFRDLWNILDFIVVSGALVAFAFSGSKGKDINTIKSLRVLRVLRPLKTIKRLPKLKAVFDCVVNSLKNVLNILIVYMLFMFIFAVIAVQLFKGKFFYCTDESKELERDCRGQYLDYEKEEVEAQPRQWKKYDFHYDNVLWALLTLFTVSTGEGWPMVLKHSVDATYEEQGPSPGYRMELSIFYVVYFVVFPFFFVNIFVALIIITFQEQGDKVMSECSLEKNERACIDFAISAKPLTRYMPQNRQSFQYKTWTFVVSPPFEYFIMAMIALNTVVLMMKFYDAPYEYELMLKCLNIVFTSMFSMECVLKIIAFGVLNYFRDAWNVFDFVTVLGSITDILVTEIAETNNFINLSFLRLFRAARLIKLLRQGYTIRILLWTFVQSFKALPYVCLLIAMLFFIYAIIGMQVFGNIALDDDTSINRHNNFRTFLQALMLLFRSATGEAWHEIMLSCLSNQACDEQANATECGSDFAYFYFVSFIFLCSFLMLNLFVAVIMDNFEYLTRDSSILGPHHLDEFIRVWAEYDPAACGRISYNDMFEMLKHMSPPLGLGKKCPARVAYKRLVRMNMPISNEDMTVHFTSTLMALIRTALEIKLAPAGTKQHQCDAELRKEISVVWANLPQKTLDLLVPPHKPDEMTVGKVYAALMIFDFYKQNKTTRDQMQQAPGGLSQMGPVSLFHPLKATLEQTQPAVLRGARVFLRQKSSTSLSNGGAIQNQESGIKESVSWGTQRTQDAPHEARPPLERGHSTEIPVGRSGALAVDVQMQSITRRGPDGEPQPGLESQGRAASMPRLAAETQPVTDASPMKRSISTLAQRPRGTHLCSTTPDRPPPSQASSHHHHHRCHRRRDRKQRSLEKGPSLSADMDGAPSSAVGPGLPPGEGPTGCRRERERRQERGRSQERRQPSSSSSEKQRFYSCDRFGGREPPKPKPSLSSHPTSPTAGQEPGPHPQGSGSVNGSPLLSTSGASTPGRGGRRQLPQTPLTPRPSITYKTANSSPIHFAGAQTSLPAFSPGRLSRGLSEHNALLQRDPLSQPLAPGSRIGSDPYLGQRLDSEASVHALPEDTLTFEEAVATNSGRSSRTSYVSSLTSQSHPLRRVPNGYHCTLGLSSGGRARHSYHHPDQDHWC
T1 sequence (P54289 25-956 partner limits assumed): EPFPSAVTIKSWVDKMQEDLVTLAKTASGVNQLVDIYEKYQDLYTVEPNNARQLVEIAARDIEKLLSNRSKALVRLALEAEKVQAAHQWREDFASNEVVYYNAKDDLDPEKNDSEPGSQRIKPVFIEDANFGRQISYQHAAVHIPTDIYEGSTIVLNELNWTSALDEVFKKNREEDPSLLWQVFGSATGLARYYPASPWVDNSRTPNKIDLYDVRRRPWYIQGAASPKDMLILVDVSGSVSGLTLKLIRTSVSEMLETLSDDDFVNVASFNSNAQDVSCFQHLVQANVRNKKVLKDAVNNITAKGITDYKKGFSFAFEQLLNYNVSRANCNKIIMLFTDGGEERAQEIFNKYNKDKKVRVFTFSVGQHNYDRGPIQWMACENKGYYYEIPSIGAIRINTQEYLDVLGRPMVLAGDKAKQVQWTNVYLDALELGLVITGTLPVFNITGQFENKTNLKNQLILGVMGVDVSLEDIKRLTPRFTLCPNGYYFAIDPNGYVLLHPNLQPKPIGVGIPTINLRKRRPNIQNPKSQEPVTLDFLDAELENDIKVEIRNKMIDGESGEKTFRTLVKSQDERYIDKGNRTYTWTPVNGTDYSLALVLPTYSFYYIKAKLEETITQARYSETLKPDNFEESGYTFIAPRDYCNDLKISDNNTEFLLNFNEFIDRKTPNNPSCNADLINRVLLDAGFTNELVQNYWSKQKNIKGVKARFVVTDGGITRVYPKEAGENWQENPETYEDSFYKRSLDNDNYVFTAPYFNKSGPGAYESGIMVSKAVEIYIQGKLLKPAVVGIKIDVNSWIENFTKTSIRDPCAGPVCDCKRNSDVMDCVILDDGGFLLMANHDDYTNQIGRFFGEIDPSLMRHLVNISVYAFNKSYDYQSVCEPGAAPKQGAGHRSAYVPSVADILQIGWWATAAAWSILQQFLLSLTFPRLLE
T1 sequence (P54289 957-1103 partner limits assumed): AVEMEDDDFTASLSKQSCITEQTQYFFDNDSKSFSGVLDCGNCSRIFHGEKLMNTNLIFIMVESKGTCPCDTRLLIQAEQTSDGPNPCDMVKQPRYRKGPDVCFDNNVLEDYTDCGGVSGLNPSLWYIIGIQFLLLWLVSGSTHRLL
T1 sequence (P54284 whole entry partner): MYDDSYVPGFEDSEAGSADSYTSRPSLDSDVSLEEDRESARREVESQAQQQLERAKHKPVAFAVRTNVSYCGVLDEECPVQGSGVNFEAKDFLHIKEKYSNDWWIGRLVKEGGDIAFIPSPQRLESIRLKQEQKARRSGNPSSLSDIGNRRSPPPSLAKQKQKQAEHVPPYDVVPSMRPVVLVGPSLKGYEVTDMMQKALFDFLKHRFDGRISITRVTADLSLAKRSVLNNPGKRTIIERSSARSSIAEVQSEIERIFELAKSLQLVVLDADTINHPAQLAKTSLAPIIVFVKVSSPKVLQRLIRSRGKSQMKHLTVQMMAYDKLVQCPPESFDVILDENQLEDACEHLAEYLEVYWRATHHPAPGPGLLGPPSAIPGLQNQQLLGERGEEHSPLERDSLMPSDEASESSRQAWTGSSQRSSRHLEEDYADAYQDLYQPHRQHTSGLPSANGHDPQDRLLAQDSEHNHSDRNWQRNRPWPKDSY
Put plainly: FLIPR calcium mobilization assay for N-type calcium channel. In kind it is cell-based. Conditions: calcium mobilization in vitro assay; differentiated IMR32 cells, 90 mM KCl, 5 μM nitrendipine. How it is done: Cell maintenance and differentiation. Unless noted otherwise, cell culture reagents were purchased from Mediatech of Hemdon, Md. IMR32 cells (American Type Culture Collection, ATCC, Manassas, Va.) were routinely cultured in growth medium consisting of minimum essential medium containing 10% fetal bovine serum (FBS, Hyclone, Logan, Utah), 100 U/mL penicillin, 100 μg/mL streptomycin, 2 mM L-glutamine, 1 mM sodium pyruvate, and 1×MEM non-essential amino acids. 80-90% confluent flasks of cells were differentiated using the following differentiation medium: Growth medium plus 1 mM dibutyryl cyclic AMP (Sigma, St. Louis, Mo.), and 2.5 μM bromodeoxyuridine (Sigma). Cells were differentiated for 8 days by replacing differentiation medium every 2-3 days.
FLIPR Calcium Mobilization Assay for N-type Calcium Channel. One day prior to performing this assay, differentiated IMR32 cells were treated with 1× CellStripper, and seeded on poly-D-lysine-coated 96-well clear-bottom black plates (Becton Dickinson, Franklin Lakes, N.J.) at 200,000 cells/well. On the day of the assay, the cell plates were washed with IMR32 buffer (127 mM NaCl, 1 mM KCl, 2 mM MgCl2, 700 μM NaH2PO4, 5 mM CaCl2, 5 mM NaHCO3, 8 mM HEPES, 10 mM glucose, pH 7.4), then pre-stimulated with KCl and loaded as follows: 0.05 mL of IMR32 buffer, 0.05 mL of each compound tested diluted in IMR32 buffer containing 20 μM nitrendipine (Sigma), and 0.1 mL KCl dissolved in IMR32 buffer, plus Fluo-4 were added (3 μM final concentration, Molecular Probes, Eugene, Oreg.). Final test compound concentrations ranged from about 846 μM to about 17 μM, final nitrendipine concentration was 5 μM, and final KCl concentration was 90 mM. After 1 hour, the cells were washed twice with 0.05 mL of each compound tested in nitrendipine-containing IMR32 buffer (no KCl or Fluo-4), and then replaced with 0.1 mL of each compound tested in nitrendipine-containing IMR32 buffer. Plates were then transferred to a Fluorimetric Imaging Plate Reader (FLIPR^96, Molecular Devices, Inc., Sunnyvale, Calif.) for assay. The FLIPR measured basal Fluo-4 fluorescence for 315 seconds (i.e., 5 minutes and 15 seconds), then added 0.1 mL KCl agonist dissolved in IMR32 buffer and measured fluorescence for another 45 seconds. Final test compound concentrations on the cells after FLIPR read ranged from about 846 μM to about 17 μM, final nitrendipine concentration was 5 μM, and final KCl concentration was 90 mM. Data were collected over the entire time course and analyzed using Excel, Graph Pad Prism (version 3.02, Graph Pad, San Diego, Calif.), or an in-house non-linear regression analysis software.
`CC(C)C[C@H](NC(C)C)C(=O)N1CCCC(N(C2CC2)S(=O)(=O)c2cccc(C(F)(F)F)c2)C1` (stereo partly drawn) [(2S)N-Cyclopropyl-N-[1-(2-isopropylamino-4-methylpentanoyl)piperidin-3-yl]-3-trifluoromethylbenzenesulfonamide]: the negative-log IC50 (pIC50) was 6.68.

With `CC(C)CCN[C@@H](CC(C)C)C(=O)N1CCCC(N(C2CC2)S(=O)(=O)c2cccc(C(F)(F)F)c2)C1` (stereo partly drawn) [(2S)N-Cyclopropyl-N-{1-[2-(3-methylbutyl)amino-4-methylpentanoyl]piperidin-3-yl}-3-trifluoromethylbenzenesulfonamide], the pIC50 was 6.44.

Turning to `O=C(CN1CCC(NS(=O)(=O)c2cccc(C(F)(F)F)c2)C1)Nc1ccc(F)cc1` (stereo not drawn) [N-(4-Fluorophenyl)-2-[3-(3-trifluoromethylbenzenesulfonylamino)-pyrrolidin-1-yl]acetamide], the pIC50 was 5.77.

For the compound `O=S(=O)(c1cccc(C(F)(F)F)c1)N(C1CC1)C1CCCN(CCCN(c2ccc(F)cc2)c2ccc(F)cc2)C1` (stereo not drawn) [N-Cyclopropyl-N-(1-{3-[bis-(4-fluorophenyl)amino]propyl}piperidin-3-yl)-3-trifluoromethylbenzenesulfonamide], the pIC50 is 5.65.

On to `O=C(CCNCCO)N1CCCC(N(C2CC2)S(=O)(=O)c2cccc(C(F)(F)F)c2)C1` (stereo not drawn) [N-Cyclopropyl-N-{1-[3-(2-hydroxyethylamino)propionyl]piperidin-3-yl}-3-trifluoromethylbenzenesulfonamide], for which the pIC50 was 5.55.

On to “(2S)N-Cyclopropyl-N-[1-(2-methylcarbonylpropylamino-4-methylpentanoyl)piperidin-3-yl]-3-trifluoromethylbenzenesulfonamide”, for which the pIC50 is 6.29.
